Measured values taken from US9695155B2, “Herbicidal substituted pyrimidinyloxy benzene compounds” (E. I. DU PONT DE NEMOURS AND COMPANY, priority 2013, dated 2017).

Columns and labels:
barnyardgrass [1] = test: Test A preemergence; type: in vivo, Echinochloa crus-galli; conditions: for Barnyardgrass plant response rating: 1000 g ai/ha, 0 to 100 scale, 0 no effect, 100 complete control, approx. 10 days
Method in brief: (§1)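 Visual 0–100 rating (100 = complete control) taken about 10 d post-treatment relative to untreated checks. Preemergence: directed soil spray on sown loam/sand pots. Postemergence: seedlings 2–10 cm, 1–2 leaf. Non-phytotoxic solvent formulation with surfactant.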

kochia [2] = test: Test A preemergence; type: in vivo, Kochia scoparia; conditions: for Kochia plant response rating: 1000 g ai/ha, 0 to 100 scale, 0 no effect, 100 complete control, approx. 10 days
Text: (§2) Seeds of plant species selected from barnyardgrass (Echinochloa crus-galli), kochia (Kochia scoparia), ragweed (common ragweed, Ambrosia elatior), Italian ryegrass (Lolium multiflorum), large (Lg) crabgrass (Digitaria sanguinalis), giant foxtail (Setaria faberii), morningglory (Ipomoea spp.), pigweed (Amaranthus retroflexus), velvetleaf (Abutilon theophrasti), wheat (Triticum aestivum), and corn (Zea mays) were planted into a blend of loam soil and sand and treated preemergence with a directed soil spray using test chemicals formulated in a non-phytotoxic solvent mixture which included a surfactant.
(§3) At the same time, plants selected from these crop and weed species and also blackgrass (Alopecurus myosuroides), and galium (catchweed bedstraw, Galium aparine) were planted in pots containing the same blend of loam soil and sand and treated with postemergence applications of test chemicals formulated in the same manner. Plants ranged in height from 2 to 10 cm and were in the one- to two-leaf stage for the postemergence treatment. Treated plants and untreated controls were maintained in a greenhouse for approximately 10 days, after which time all treated plants were compared to untreated controls and visually evaluated for injury. Plant response ratings, summarized in Table A, are based on a 0 to 100 scale where 0 is no effect and 100 is complete control. A dash (-) response means no test result.

ragweed [3] = test: Test A preemergence; type: in vivo, Ambrosia elatior; conditions: for Ragweed plant response rating: 1000 g ai/ha, 0 to 100 scale, 0 no effect, 100 complete control, approx. 10 days
Text: as §2, §3

Italian ryegrass [4] = test: Test A preemergence; type: in vivo, Lolium multiflorum; conditions: for Ryegrass, Italian plant response rating: 1000 g ai/ha, 0 to 100 scale, 0 no effect, 100 complete control, approx. 10 days
Method in brief: as §1

giant foxtail [5] = test: Test A preemergence; type: in vivo, Setaria faberii; conditions: for Foxtail, Giant plant response rating: 1000 g ai/ha, 0 to 100 scale, 0 no effect, 100 complete control, approx. 10 days
Method in brief: as §1

pigweed [6] = test: Test A preemergence; type: in vivo, Amaranthus retroflexus; conditions: for Pigweed plant response rating: 1000 g ai/ha, 0 to 100 scale, 0 no effect, 100 complete control, approx. 10 days
Method in brief: as §1

barnyardgrass [7] = test: Test A postemergence; type: in vivo, Echinochloa crus-galli; conditions: 0 to 100 scale, 0 no effect, 100 complete control
Method in brief: as §1

kochia [8] = test: Test A postemergence; type: in vivo, Kochia scoparia; conditions: 0 to 100 scale, 0 no effect, 100 complete control
Text: as §2, §3

ragweed [9] = test: Test A postemergence; type: in vivo, Ambrosia elatior; conditions: 0 to 100 scale, 0 no effect, 100 complete control
Text: as §2, §3

Italian ryegrass [10] = test: Test A postemergence; type: in vivo, Lolium multiflorum; conditions: 0 to 100 scale, 0 no effect, 100 complete control
Method in brief: as §1

giant foxtail [11] = test: Test A postemergence; type: in vivo, Setaria faberii; conditions: 0 to 100 scale, 0 no effect, 100 complete control
Method in brief: as §1

pigweed [12] = test: Test A postemergence; type: in vivo, Amaranthus retroflexus; conditions: 0 to 100 scale, 0 no effect, 100 complete control
Method in brief: as §1

wheat = test: Test A postemergence; type: in vivo, Triticum aestivum; conditions: 0 to 100 scale, 0 no effect, 100 complete control
Method in brief: as §1

corn = test: Test A postemergence; type: in vivo, Zea mays; conditions: 0 to 100 scale, 0 no effect, 100 complete control
Method in brief: as §1

blackgrass = test: Test A postemergence; type: in vivo, Alopecurus myosuroides; conditions: 0 to 100 scale, 0 no effect, 100 complete control
Text: as §2, §3

galium = test: Test A postemergence; type: in vivo, Galium aparine; conditions: 0 to 100 scale, 0 no effect, 100 complete control
Method in brief: as §1

rice = test: Test B flooded paddy test; type: in vivo, Oryza sativa; conditions: Flood, 250 g ai/ha; 0 to 100 scale where 0 is no effect and 100 is complete control
Method in brief: (§4)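 Scores from 0 (no effect) to 100 (complete control) are visual comparisons with controls, taken 13 to 15 days after compound was applied into floodwater 3 cm deep around 2-leaf plants.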

sedge, umbrella = test: Test B flooded paddy test; type: in vivo, Cyperus difformis; conditions: Flood, 250 g ai/ha; 0 to 100 scale where 0 is no effect and 100 is complete control
Method in brief: as §4

Heteranthera limosa = test: Test B flooded paddy test; type: in vivo; conditions: Flood, 250 g ai/ha; 0 to 100 scale where 0 is no effect and 100 is complete control
Method in brief: as §4

barnyardgrass [13] = test: Test B flooded paddy test; type: in vivo, Echinochloa crus-galli; conditions: Flood, 250 g ai/ha; 0 to 100 scale where 0 is no effect and 100 is complete control
Method in brief: as §4

[14] = 31 g ai/ha, 0 to 100 scale where 0 is no effect and 100 is complete control, visual, approximately 10 days

## N#Cc1cnn(-c2c(CF)cccc2Oc2ncc(Cl)cn2)c1 [Compound 242]
Barnyardgrass [1]; [14]
  Plant response rating, Barnyardgrass: 20
Barnyardgrass [1]; 125 g ai/ha
  Barnyardgrass plant response rating (0 to 100 scale, 0 is no effect, 100 is complete control): 70
Kochia [2]; [14]
  Plant response rating, Kochia: 30
Kochia [2]; 125 g ai/ha
  Kochia plant response rating (0 to 100 scale): 100
Ragweed [3]; [14]
  Plant response rating, Ragweed: 50
Ragweed [3]; 125 g ai/ha
  Ragweed plant response rating (0 to 100 scale): 80
Italian ryegrass [4]; [14]
  Plant response rating, Ryegrass, Italian: 0
Italian ryegrass [4]; 125 g ai/ha
  Ryegrass, Italian plant response rating (0 to 100 scale): 0
Giant foxtail [5]; [14]
  Plant response rating, Foxtail, Giant: 100
Giant foxtail [5]; 125 g ai/ha
  Foxtail, Giant plant response rating (0 to 100 scale): 100
Pigweed [6]; [14]
  Plant response rating, Pigweed: 90
Pigweed [6]; 125 g ai/ha
  Pigweed plant response rating (0 to 100 scale): 100
Barnyardgrass [7]; 31 g ai/ha
  Plant response rating, Barnyardgrass: 0
Barnyardgrass [7]; 125 g ai/ha
  Plant response rating, Barnyardgrass: 60
Kochia [8]; 31 g ai/ha
  Plant response rating, Kochia: 30
Kochia [8]; 125 g ai/ha
  Plant response rating, Kochia: 80
Ragweed [9]; 31 g ai/ha
  Plant response rating, Ragweed: 20
Ragweed [9]; 125 g ai/ha
  Plant response rating, Ragweed: 50
Italian ryegrass [10]; 31 g ai/ha
  Plant response rating, Ryegrass, Italian: 0
Italian ryegrass [10]; 125 g ai/ha
  Plant response rating, Ryegrass, Italian: 30
Giant foxtail [11]; 31 g ai/ha
  Plant response rating, Foxtail, Giant: 0
Giant foxtail [11]; 125 g ai/ha
  Plant response rating, Foxtail, Giant: 50
Pigweed [12]; 31 g ai/ha
  Plant response rating, Pigweed: 30
Pigweed [12]; 125 g ai/ha
  Plant response rating, Pigweed: 80
wheat; 31 g ai/ha
  Plant response rating, Wheat: 0
wheat; 125 g ai/ha
  Plant response rating, Wheat: 60
corn; 31 g ai/ha
  Plant response rating, Corn: 0
corn; 125 g ai/ha
  Plant response rating, Corn: 60
blackgrass; 31 g ai/ha
  Plant response rating, Blackgrass: 30
blackgrass; 125 g ai/ha
  Plant response rating, Blackgrass: 90
galium; 31 g ai/ha
  Plant response rating, Galium: 10
galium; 125 g ai/ha
  Plant response rating, Galium: 30
rice
  Plant response rating, Rice: 0
sedge, umbrella
  Plant response rating, Sedge, Umbrella: 75
Heteranthera limosa
  Plant response rating, Ducksalad: 70
Barnyardgrass [13]
  Plant response rating, Barnyardgrass: 20

## CNC(=O)c1cccc(Oc2ncc(Cl)cn2)c1-n1cc(C(F)(F)F)cn1 [Compound 256]
Barnyardgrass [1]
  Barnyardgrass plant response rating: 20
Kochia [2]
  Kochia plant response rating: 70
Ragweed [3]
  Ragweed plant response rating: 30
Italian ryegrass [4]
  Ryegrass, Italian plant response rating: 20
Giant foxtail [5]
  Foxtail, Giant plant response rating: 30
Pigweed [6]
  Pigweed plant response rating: 30
Barnyardgrass [7]; 1000 g ai/ha
  Plant response rating, Barnyardgrass: 10
Kochia [8]; 1000 g ai/ha
  Plant response rating, Kochia: 30
Ragweed [9]; 1000 g ai/ha
  Plant response rating, Ragweed: 10
Italian ryegrass [10]; 1000 g ai/ha
  Plant response rating, Ryegrass, Italian: 0
Giant foxtail [11]; 1000 g ai/ha
  Plant response rating, Foxtail, Giant: 10
Pigweed [12]; 1000 g ai/ha
  Plant response rating, Pigweed: 10
wheat; 1000 g ai/ha
  Plant response rating, Wheat: 0
corn; 1000 g ai/ha
  Plant response rating, Corn: 0
blackgrass; 1000 g ai/ha
  Plant response rating, Blackgrass: 10
galium; 1000 g ai/ha
  Plant response rating, Galium: 30

## C[Si](C)(C)c1cn(-c2c(Br)cccc2Oc2ncc(Cl)cn2)nn1 [Compound 300]
Barnyardgrass [1]
  Barnyardgrass plant response rating: 20
Kochia [2]
  Kochia plant response rating: 60
Ragweed [3]
  Ragweed plant response rating: 0
Italian ryegrass [4]
  Ryegrass, Italian plant response rating: 20
Giant foxtail [5]
  Foxtail, Giant plant response rating: 80
Pigweed [6]
  Pigweed plant response rating: 100
Barnyardgrass [7]; 1000 g ai/ha
  Plant response rating, Barnyardgrass: 0
Kochia [8]; 1000 g ai/ha
  Plant response rating, Kochia: 20
Ragweed [9]; 1000 g ai/ha
  Plant response rating, Ragweed: 0
Italian ryegrass [10]; 1000 g ai/ha
  Plant response rating, Ryegrass, Italian: 0
Giant foxtail [11]; 1000 g ai/ha
  Plant response rating, Foxtail, Giant: 30
Pigweed [12]; 1000 g ai/ha
  Plant response rating, Pigweed: 60
wheat; 1000 g ai/ha
  Plant response rating, Wheat: 0
corn; 1000 g ai/ha
  Plant response rating, Corn: 10
blackgrass; 1000 g ai/ha
  Plant response rating, Blackgrass: 0
galium; 1000 g ai/ha
  Plant response rating, Galium: 40

## CCN(C)C(=O)c1cccc(Oc2ncc(Cl)cn2)c1-n1cc(C(F)(F)F)cn1 [Compound 262]
Barnyardgrass [1]
  Barnyardgrass plant response rating: 0
Kochia [2]
  Kochia plant response rating: 20
Ragweed [3]
  Ragweed plant response rating: 0
Italian ryegrass [4]
  Ryegrass, Italian plant response rating: 0
Giant foxtail [5]
  Foxtail, Giant plant response rating: 50
Pigweed [6]
  Pigweed plant response rating: 10
Barnyardgrass [7]; 1000 g ai/ha
  Plant response rating, Barnyardgrass: 10
Kochia [8]; 1000 g ai/ha
  Plant response rating, Kochia: 30
Ragweed [9]; 1000 g ai/ha
  Plant response rating, Ragweed: 10
Italian ryegrass [10]; 1000 g ai/ha
  Plant response rating, Ryegrass, Italian: 0
Giant foxtail [11]; 1000 g ai/ha
  Plant response rating, Foxtail, Giant: 10
Pigweed [12]; 1000 g ai/ha
  Plant response rating, Pigweed: 50
wheat; 1000 g ai/ha
  Plant response rating, Wheat: 0
corn; 1000 g ai/ha
  Plant response rating, Corn: 0
blackgrass; 1000 g ai/ha
  Plant response rating, Blackgrass: 10
galium; 1000 g ai/ha
  Plant response rating, Galium: 10
